The record followed here is US7947253B2, “Perturbed membrane-binding compounds and methods of using the same” (Aposense Ltd., priority 2004, dated 2011).

A value given as a limit tells only on which side of the number the result lay.

In data set [1] the test system is HeLa S3 cells undergoing apoptosis. Put plainly: Fluorescent microscopy of binding to cultured HeLa cells undergoing apoptosis. It counts as cell-based. The conditions noted are these: aged HeLa culture, fluorescence, FIG. 3. The protocol:
HeLa S3 cells (ATCC CCL-2.2) were grown in Dulbecco's modified Eagle's medium (DMEM), supplemented with 2 mM of L-glutamine; 100 units/ml of penicillin; 100 μg/ml of streptomycin; 12.5 units/ml of nystatin and 10% of fetal calf serum (FCS). Cells were seeded at a density of 5×10^6 cells/plate, on a […] culture plates, in a volume of 10 ml, and were allowed to age by incubating the culture for 96 hours without exchange of the growth-medium. As a result, a marked percentage of the cells became apoptotic. Cells were harvested using a cell scraper, separated to single cells by passage through a syringe with a 18 G needle, and re-suspended at a density of 10^6 cells/ml in PBS buffer at pH=7.4. As was shown before NST 203 including a dansylamide group which enables the visualization of the fluorescence of a single cell.

The subject of data set [2] is brain and spinal cord white matter in EAE. The data set can be described thus: Autoradiography imaging of experimental autoimmune encephalomyelitis (EAE). It counts as in vivo, C3H.SW/C57/bl female mice. The conditions noted are these: FIG. 12.
Data set [3] concerns Jurkat cells undergoing apoptosis induced by CD95. The data set can be described thus: Binding of tritium-labeled compounds to cultured Jurkat cells undergoing apoptosis induced by CD95. It counts as cell-based, human. As to the method: Cultured Jurkat cells (human adult T cell leukemia cells) were grown in suspension in RPMI medium (Beit-Haemek, Israel), supplemented with 10% fetal calf serum (FCS), 2 mM of L-glutamide, 1 mM of sodium pyruvate, 1 mM HEPES and antibiotics (100 units/ml penicilin; 100 μg/ml streptomycin and 12.5 units/ml of nystatin). Prior to induction of apoptosis, medium was replaced with HBS buffer (10 mM HEPES; 140 mM NaCl, 1 mM CaCl). Apoptosis was then triggered by treatment with CD95 (0.1 ug/10^7 cells/ml). As a result, a marked percentage of the cells became apoptotic. Non-treated cells served as control. Both control cells and apoptotic cells were then incubated for 40 minutes at room temperature followed by 30 minutes on ice with (2 μCi/10^7 cells/0.5 ml) tritium-labeled NST 200 and NST 205.
After washing the cells twice, 1 ml of SOLVABLE™ reagent (GNE9100, Packard Biosciences) was added to the pellet. Following one hour of incubation at 60° C., the extracts were transferred into glass scintillation vials and 10 ml of scintillation liquid (Ultima gold 6013329, Packard Biosciences) was added to each vial. The radioactivity was counted after 1 hour of cooling to room temperature and dark adaptation. The radioactive values were calculated and presented in percents of total added radiolabeled NST 200 and NST 205

The test system of data set [4] is colon carcinoma tumors. The data set can be described thus: Uptake into treated colon carcinoma tumors compared with tumor volume. It counts as in vivo, Balb/c male mice. The protocol:
Colon carcinoma model was established in the abdomen of Balb/c male mice, as described in Example No. 10. At day 12-14 when tumor size was 6-8 mm in diameter, mice were injected intravenously with doxorubicin. A total of 2 doses of doxorubicin were given, separated by 3 days interval (each dose was 20 mg/Kg).
Two days after the second doxorubicin injection, mice were injected i.v. with 10 μCi of ^3H-NST200 in a volume of 0.2 ml saline. Four hours following ^3H-NST200 injection, mice were sacrificed by pental overdosing. Tumors were collected in ependorff tubes, weighted and frozen in −20° C.
Tumor lysis was performed using SOLVABLE™ reagent (GNE9100, Packard Bioscience) in a ratio of 1 ml reagent per 150 mg of tumor tissue at 60° C. in 20 ml scintillation glass vials. Following 2-4 hours, 1 ml from each tissue extract was transferred to a glass scintillation vial. To reduce color quenching problems, samples were treated with 0.4 ml of 30% H2O2 in the presence of 0.066M EDTA. […] The vials were incubated for 1 hr at RT, and than analyzed in a β-counter (TRI-CARB 2100TR, liquid scintillation analyzer, Packard Bioscience). Values of percents of injected dose (% ID/g tissue) were calculated for each sample. […] The uptake values of NST200 after each dose were correlated with tumor volume, which were calculated by the formula (assuming spherical tumors) V=πD^3/6, where D is the average tumor diameter.

Data set [5] relates to colon carcinoma tumors. Put plainly: Autoradiography of response to chemotherapy in a mouse model of colon carcinoma. It counts as in vivo, Balb/c male mice. The conditions noted are these: 4 h after i.v. injection. As to the method: Colon carcinoma model was established in the abdomen of Balb/c male mice. At day 12-14 when tumor size was […] in diameter, the uptake of NST200 into tumors was measured following treatment of colon carcinoma tumors with i.v. injection of two doses of doxorubicin (20 mg/kg, 72 hours apart). Fourty-eight hours after the chemotherapy, both the control non-treated and the chemotherapy-treated animals were injected intravenously with and radio-labeled NST200 (80 μCi/animal) Four hours later, the animals were sacrificed. 10 μm frozen sections were prepared, air-dried and exposed to a tritium sensitive film. The film was exposed for a duration of 7 weeks, developed and analyzed by densitometny measurement. Measurement of ^3H-DDC densities in optical density/mm^2, […] was assessed by TINA software. Signals were translated according to a Microscale autoradiography standards and expressed in nCi/mg units.

Data set [6] concerns colon carcinoma tumor vs other organs. Put plainly: Biodistribution in colon carcinoma tumor bearing mice. It counts as in vivo, Balb/c male mice. The following applies: doxorubicin treated mice, 4 h after injection, table of FIG. 7. As to the method: Colon carcinoma model was established in the abdomen of Balb/c male mice, as described in previous example, and ^3H-NST200 (10 μCi) was injected to animals treated with doxorubicin. Four hours later, the animals were sacrificed and various organs/tissues were collected and processed, to determine the accumulation of ^3H-NST200 within them. The uptake in each organ was expressed as % of the injected dose (ID), and the ratio between the uptake in the tumor and other organs was calculated, as shown in the table attached hereto as FIG. 7.

Data set [7] concerns brain regions of apoptotic/necrotic cell death. The data set can be described thus: Autoradiography of apoptotic damage following middle cerebral artery occlusion in mice. It counts as in vivo, Balb/C mice. As to the method:
p-MCA was induced through a subtemporal approach in Balb/C mice with an outcome of a pronounced ischemic damage. Twenty-two hours after p-MCA, the animal's neurological score was assessed (from 0-no clinical signs to 3-hemiplegia, circling and catatonia) and radio-labeled NST200 (80 μCi/animal) was intravenously injected for successive 2 h before sacrificing the animals. 10 μm frozen sections were prepared, air-dried and exposed to a tritium sensitive film (Hyperfilm-3h, RPN535B Amersharn-Pharmacia, Eu). The film was exposed for a duration of 7 weeks, developed (GBX Developer & Fixer, Kodak, USA) and analyzed by densitometry measurement. Measurement of ^3H-DDC densities in optical density/mm^2, in the ischemic core vs. the contralateral hemisphere signal was assessed by TINA software. Signals were translated according to a Microscale autoradiography standards (RPN510 Amersham-Pharmacia, Eu) and expressed in nCi/mg units.

For data set [8], the system named is Murine colon carcinoma cells (CT-26) tumors. Put plainly: Uptake into colon carcinoma tumors: effect of chemotherapy (scintillation counting). It counts as in vivo, Balb/C mice. The protocol:
Murine colon carcinoma cells (CT-26) (ATCC CRL-2638) were maintained in RPMI (Gibco, UK), 2 mM of L-glutamine; 100 units/ml of penicillin; 100 μg/ml of streptomycine; 12.5 units/ml nystatin; and 10% heated inactivation FCS. Studies were carried out in adult male Balb/C mice 8-10 weeks old (weighting 20-25gr).
Cells were trypsinized, washed twice with HBS (140 mM NaCl; […], PH 7.4) and than centrifuged (5 min, 1000 rpm, 4° C.) and concentrated into 2×10^6 cells/ml in a mixture of (2%) methyl cellulose and saline (1:3). A volume of 0.2 ml of the above solution (containing 4×10^5 cells/dose) was injected subcutaneously into the mice abdomen in both sides while mice were anaesthetized. Anaesthetic stock solution was prepared from 0.85 ml Ketamine (100 mg/ml)+0.15 ml Xilazine (2%) diluted 1:10. 0.1 ml of diluted solution was injected (i.p.) per 10 gr body weight.
Mice were examined daily for palpable tumor formation. 7-10 days after tumor injection small tumors were visible.
Uptake of ^3H-NST200 into tumors was measured following treatment of colon carcinoma tumors with i.v. injection of two doses of doxorubicin (20 mg/kg, 72 hours apart). 48 hours after the second dose, the mice were intravenously injected with ^3H-NST200 (10 μCi/animal). Four hours later, tumors were collected, weighed and the tissue was processed: tumor lysis was performed using SOLVABLE™ reagent (GNE9100, Packard Bioscience) in a ratio of one ml reagent per 150 mg of tumor tissue at 60° C. in 20 ml scintillation glass vials. Following 2-4 hours, one ml from each tissue extract was transferred to a glass scintillation vial. To reduce color quenching problems, samples were treated with 0.4 ml of 30% H2O2 in the presence of 0.066M EDTA. […] The vials were incubated for 1 hr at RT, and than analyzed in a β-counter (TRI-CARB 2100TR, liquid scintillation analyzer, Packard Bioscience). All samples were measured in triplicates Values of percents of injected dose (% ID/g tissue) were calculated for each sample.

The subject of data set [9] is injured regions within the outer medulla of the kidney. Put plainly: Autoradiography in a rat model of radiocontrast-induced acute distal tubular necrosis. It counts as in vivo, rats. The conditions noted are these: 24 h after insult, 1 h after i.v. injection, FIG. 11. The protocol:
Nephropathy with selective medullary hypoxic tubular damage was induced by the combined administration of indomethacin (Sigma Chemical Co.), 10 mg/kg, i.v., N^ωnitro-L-arginine methyl ester (L-NAME, Sigma Chemical Co.), 10 mg/kg, i.v., and radiocontrast agent sodium-iothalamate 80% (Angio-Conray, Mallinckrodt Inc), 6 mL/kg, i.a. Additional rats injected with vehicles served as control. Twenty-four hours after insult, animals, both control and experimental were intravenously injected with 100 μCi of ^3H-NST205 and one hour later kidneys were excised and frozen in liquid nitrogen.

Data set [10] concerns kidney regions of apoptotic/necrotic cell death. Put plainly: Autoradiography of rat renal ischemia-reperfusion. It counts as in vivo, rats.

Turning to `CCCCNS(=O)(=O)c1cccc2c(N(C)C)cccc12` [BDA, n-butyl-dansylamide], the “selectivity of binding to apoptotic vs non-apoptotic cells” value in data set [1] is recorded as “did not manifest this selectivity”.
On to `CCCCC(C)(C(=O)O)C(=O)O` [NST200], for which the “radio-ligand accumulation in brain vs control non-immunized mouse” value in data set [2] (coronal brain sections, 1 h after i.v. injection) is listed as “excess of radio-ligand accumulation in the whole brain”. For the same compound, in data set [2] (longitudinal spinal cord section), the “accumulation at the spinal cord level vs control untreated animal” value is “impressive accumulation”. In data set [3] (tritium-labeled compound, CD95-induced apoptosis, FIG. 2A), the “uptake in apoptotic cells compared to the non-apoptotic cells” value was “over 8 fold”. Further, the “increase in uptake in tumors after 2 doses of doxorubicin” value in the data set with colon carcinoma tumors [4] (two days after second dose, 4 h after i.v. injection, vs control non-treated tumors) is given as 18.5 fold. Besides, the “uptake in tumors upon induction of cell death via chemotherapy (autoradiography)” value with colon carcinoma tumors [5] (48 h after two doses of doxorubicin, FIGS. 5B and C) is given as “dramatic increase”. Moreover, in the data set with colon carcinoma tumors [5] (control non-treated mice, FIG. 5A), the “uptake in non-treated tumors (autoradiography)” value is listed as “no uptake”. Further, in data set [6], the “ratio of uptake in the tumor vs. all organs” value is recorded as above 1. In addition, the “targeting of injury within regions of apoptotic/necrotic cell death (autoradiography)” value in data set [7] (22 h after p-MCA, i.v., 2 h, FIG. 9) is “specificity of targeting the injury”. Besides, the “uptake in damaged brain hemisphere compared to the contralateral non-damaged hemisphere” value in data set [7] (tritium-labeled compound) is “markedly higher levels of uptake”. Moreover, the “mean value of uptake in the treated group” value in [8] (doxorubicin treated tumors, 48 hr after second dose, 4 h after i.v. injection) turned out to be 1.28 % ID/gr. For the same compound, the “mean uptake of treated group relative to mean value of the control group” value in data set [8] (doxorubicin treated vs non treated tumors) is given as 12.1 fold. For the same compound, the “increase in uptake in some treated tumors as compared with the control group” value in [8] (some chemotherapy-treated tumors) is 40-50 fold.
Regarding `CCCCC(CCCF)(C(=O)O)C(=O)O` [NST205, 2-butyl-2(3-fluoropropyl)-malonic acid], in data set [9], the “homing in kidney (autoradiography)” value is on record as “primarily restricted to injured regions within the outer medulla”. Besides, the “targeting of injury within regions of apoptotic/necrotic cell death in ischemic kidney (autoradiography)” value in data set [10] (45 minutes ischemia, 24 hours reperfusion, 1 h after i.v. injection, FIG. 10) was “specificity of targeting the injury”. Moreover, in data set [10] (contralateral untreated kidney of same animal), the “uptake into contralateral kidney” value is on record as “no ^3H-NST205 uptake into contralateral kidney”. Also, the “effect of adding caspase inhibitor ZVAD on the higher uptake in apoptotic cells” value in [3] (CD95, plus ZVAD, FIG. 2B) was “completely reversed”. The “uptake in apoptotic cells in comparison to the non apoptotic cells” value in data set [3] (tritium-labeled compound, CD95-induced apoptosis, FIG. 2B) was “higher uptake”.
As for `COc1cccc2c1C(=O)c1c(O)c3c(c(O)c1C2=O)C[C@@](O)(C(=O)CO)C[C@@H]3O[C@H]1C[C@H](N)[C@H](O)[C@H](C)O1` [doxorubicin, reference compound], in the data set with colon carcinoma tumors [4] (2 doses of 20 mg/Kg i.v., 5 days, controls collected 5 days earlier, non-significant), the “increase in tumor volume as compared to control non-treated tumors” value came to 50%.
